Common to all, as to type: cell-based
One experiment has as its system Mia-Paca-2. Kind of experiment: Cancer cell panel, cell viability (resazurin): Pancreatic, Mia-Paca-2. As to conditions: Mia-Paca-2 (Pancreatic), 72 hours; labelled drug combined with Example 3. (In general: Resazurin is reduced to fluorescent resorufin, in cell work by metabolically active cells.)
The test system of a further experiment is Caki-1. Kind of experiment: Cancer cell panel, cell viability (resazurin): Renal, Caki-1. As to conditions: Caki-1 (Renal), 72 hours; labelled drug combined with Example 3.
The next experiment deals with Raji. Kind of experiment: Cancer cell panel, cell viability (resazurin): Burkitt's Lymphoma, Raji. The conditions noted are these: 72 hours, labelled drug combined with Example 3.
A further experiment deals with Ramos. Kind of experiment: Cancer cell panel, cell viability (resazurin): Burkitt's Lymphoma, Ramos. The conditions noted are these: 72 hours, labelled drug combined with Example 3.
The next experiment concerns RPMI8226. Kind of experiment: Cancer cell panel, cell viability (resazurin): multiple myeloma, RPMI8226. As to conditions: 72 hours, labelled drug combined with Example 3.
The subject of another experiment is H23. Nature of the experiment: Cancer cell panel, cell viability (resazurin): NSCLC, H23. As to conditions: 72 hours, labelled drug combined with Example 3.
The test system of a further experiment is A549. Nature of the experiment: Cancer cell panel, cell viability (resazurin): NSCLC, A549. The conditions noted are these: 72 hours, labelled drug combined with Example 3.
The test system of another experiment is 786-O. Nature of the experiment: Cancer cell panel, cell viability (resazurin): Renal, 786-O. As to conditions: 786-O (Renal), 72 hours; labelled drug combined with Example 3.
The test system of another experiment is WM-115. Nature of the experiment: Cancer cell panel, cell viability (resazurin): Melanoma, WM-115. The conditions noted are these: WM-115 (Melanoma), 72 hours; labelled drug combined with Example 3.
The subject of another experiment is Colo205. Nature of the experiment: Cancer cell panel, cell viability (resazurin): Colon, Colo205. As to conditions: 72 hours, labelled drug combined with Example 3.
For a further experiment, the system named is HCT116. Kind of experiment: Cancer cell panel, cell viability (resazurin): Colon, HCT116. As to conditions: 72 hours, labelled drug combined with Example 3.
The subject of a further experiment is PC3. Kind of experiment: Cancer cell panel, cell viability (resazurin): Prostate, PC3. The conditions noted are these: 72 hours, labelled drug combined with Example 3.
For another experiment, the system named is A2780. Nature of the experiment: Cancer cell panel, cell viability (resazurin): Ovarian, A2780. The conditions noted are these: 72 hours, labelled drug combined with Example 3.
A further experiment has as its system Panc-1. Nature of the experiment: Cancer cell panel, cell viability (resazurin): Pancreatic, Panc-1. As to conditions: Panc-1 (Pancreatic), 72 hours; labelled drug combined with Example 3.
The test system of a further experiment is H2122. Nature of the experiment: Cancer cell panel, cell viability (resazurin): NSCLC, H2122. As to conditions: 72 hours, labelled drug combined with Example 3.
A further experiment has as its system ZR-75-1. Kind of experiment: Cancer cell panel, cell viability (resazurin): Breast, ZR-75-1. As to conditions: ZR-75-1 (Breast), 72 hours; labelled drug combined with Example 3.
The test system of the next experiment is BT-20. Nature of the experiment: Cancer cell panel, cell viability (resazurin): Breast, BT-20. The conditions noted are these: BT-20 (Breast), 72 hours; labelled drug combined with Example 3.
The test system of a further experiment is SkBr-3. Nature of the experiment: Cancer cell panel, cell viability (resazurin): Breast, SkBr-3. The conditions noted are these: SkBr-3 (Breast), 72 hours; labelled drug combined with Example 3.
A further experiment deals with SK-MEL-3. Kind of experiment: Cancer cell panel, cell viability (resazurin): Melanoma, SK-MEL-3. As to conditions: SK-MEL-3 (Melanoma), 72 hours; labelled drug combined with Example 3.
A further experiment concerns LnCap. Kind of experiment: Cancer cell panel, cell viability (resazurin): Prostate, LnCap. As to conditions: 72 hours, labelled drug combined with Example 3.
The next experiment has as its system Caov-3. Nature of the experiment: Cancer cell panel, cell viability (resazurin): Ovarian, Caov-3. The conditions noted are these: Caov-3 (Ovarian), 72 hours; labelled drug combined with Example 3.
In another experiment the test system is MCF7. Nature of the experiment: Cancer cell panel, cell viability (resazurin): Breast, MCF7. The conditions noted are these: 72 hours, labelled drug combined with Example 3.
Another experiment deals with SK-MEL-24. Kind of experiment: Cancer cell panel, cell viability (resazurin): Melanoma, SK-MEL-24. The conditions noted are these: SK-MEL-24 (Melanoma), 72 hours; labelled drug combined with Example 3.

Protocol for MCF7: (§1) Cells were plated in 96-well plates and treated for 72 hours with a serially diluted CK2 inhibitor or anti-cancer drug or their combination. The suspension cell lines were treated right after plating, while the adherent cells were allowed to attach overnight prior to the start of the treatment.
(§2) Cell viability was determined by adding resazurin to cell cultures and measuring fluorescence with a plate reader. Relative cell viability was calculated by dividing the cell viability signal from a test sample by that of a non-treated control. […] Bliss Independence and Highest Single Agent models were used to determine if there is synergy, additivity or antagonism between the CK2 inhibitor and an anti-cancer drug.
Protocol for PC3: as §1, §2
Protocol for RPMI8226: as §1, §2
Protocol for Ramos: as §1, §2

In the case of `Nc1ccn([C@@H]2O[C@H](CO)[C@@H](O)C2(F)F)c(=O)n1` [Gemcitabine, gemcitabine], the “synergy, additivity or antagonism of the combination of Example 3 with the anti-cancer drug” value (“synergy, additivity or antagonism” below) in the experiment with Mia-Paca-2 is “+ + (Slight synergy relative to each agent alone (CI = 0.75-0.9 by Bliss Independence Model))”; in the experiment with Caki-1, “+ (Additive relative to each agent alone (CI = 0.9-1 by Bliss Independence Model and <0.9 by Highest Single Agent Model))”; in the experiment on Raji, “+ + (Slight synergy relative to each agent alone (CI = 0.75-0.9 by Bliss Independence Model))”; with Ramos, “+ + (Slight synergy relative to each agent alone (CI = 0.75-0.9 by Bliss Independence Model))”; in the experiment on RPMI8226, “+ + (Slight synergy relative to each agent alone (CI = 0.75-0.9 by Bliss Independence Model))”; with H23, “+ (Additive relative to each agent alone (CI = 0.9-1 by Bliss Independence Model and <0.9 by Highest Single Agent Model))”. Besides, the “synergy, additivity or antagonism” value is “+ + + + (Strong synergy relative to each agent alone (CI < 0.4 by Bliss Independence Model))” in the experiment on A549; “+ + + (Synergy relative to each agent alone (CI = 0.4-0.74 by Bliss Independence Model))” with 786-O; “+ (Additive relative to each agent alone (CI = 0.9-1 by Bliss Independence Model and <0.9 by Highest Single Agent Model))” in the experiment with WM-115; “+ (Additive relative to each agent alone (CI = 0.9-1 by Bliss Independence Model and <0.9 by Highest Single Agent Model))” in the experiment with Colo205; “+ (Additive relative to each agent alone (CI = 0.9-1 by Bliss Independence Model and <0.9 by Highest Single Agent Model))” in the experiment on HCT116; “+ (Additive relative to each agent alone (CI = 0.9-1 by Bliss Independence Model and <0.9 by Highest Single Agent Model))” with PC3. In addition, the “synergy, additivity or antagonism” value with A2780 is “+ + + (Synergy relative to each agent alone (CI = 0.4-0.74 by Bliss Independence Model))”; with Panc-1, “+ (Additive relative to each agent alone (CI = 0.9-1 by Bliss Independence Model and <0.9 by Highest Single Agent Model))”; in the experiment with H2122 it was “+ + (Slight synergy relative to each agent alone (CI = 0.75-0.9 by Bliss Independence Model))”; in the experiment with ZR-75-1 it was “+ (Additive relative to each agent alone (CI = 0.9-1 by Bliss Independence Model and <0.9 by Highest Single Agent Model))”; in the experiment on BT-20, “+ (Additive relative to each agent alone (CI = 0.9-1 by Bliss Independence Model and <0.9 by Highest Single Agent Model))”; with SkBr-3, “+ (Additive relative to each agent alone (CI = 0.9-1 by Bliss Independence Model and <0.9 by Highest Single Agent Model))”. Moreover, the “synergy, additivity or antagonism” value in the experiment with SK-MEL-3 is “+ (Additive relative to each agent alone (CI = 0.9-1 by Bliss Independence Model and <0.9 by Highest Single Agent Model))”; with LnCap, “+ (Additive relative to each agent alone (CI = 0.9-1 by Bliss Independence Model and <0.9 by Highest Single Agent Model))”; with Caov-3, “+ (Additive relative to each agent alone (CI = 0.9-1 by Bliss Independence Model and <0.9 by Highest Single Agent Model))”; with MCF7, “+ (Additive relative to each agent alone (CI = 0.9-1 by Bliss Independence Model and <0.9 by Highest Single Agent Model))”; in the experiment with SK-MEL-24, “+ (Additive relative to each agent alone (CI = 0.9-1 by Bliss Independence Model and <0.9 by Highest Single Agent Model))”.

The values above are taken from US10227344B2, “CK2 inhibitors, compositions and methods thereof” (Polaris Pharmaceuticals, Inc., priority 2016, dated 2019).
